The text below walks through data of patent EP2706985B1 (Acerus Biopharma Inc., priority 2011, dated 2012).

This series can be described thus: Example 11 Period 2: multiple-dose pharmacokinetics (free and total testosterone, dihydrotestosterone, estradiol, SHBG). Particulars: multi-dose, PK conclusions.

Each structure is given as a SMILES string.

In the case of `C[C@]12CC[C@H]3[C@@H](CCC4=CC(=O)CC[C@@]43C)[C@@H]1CC[C@@H]2O` [Testosterone, 17β-Hydroxyandrost-4-en-3-one], the “time to return to baseline” value lay in the range of 12 to 15 h.
